We go through nine compounds from patent publication US7994185B2, “Benzene sulfonamide thiazole and oxazole compounds” (Glaxo Smith Kline LLC, priority 2008, dated 2011).

Assay [1] addresses T1, BRAFV600E full-length (amino acids 2-766) (Homo sapiens, UniProt P15056, V600E).
T1 construct: His6-tagged BRAFV600E full-length (amino acids 2-766); His6; made in house; host or cells: baculovirus expression system (insect cells)
As to the kind of experiment: B-Raf Accelerated MEK ATPase assay (BRAMA). The assay is classed as biochemical. As to conditions: categorized. An outline of the steps: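 Coupled-enzyme readout: ADP generated by MEK-mediated ATP hydrolysis, uncoupled from ERK phosphorylation, is linked to NADH oxidation through pyruvate kinase and lactate dehydrogenase.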

Assay [2] has as its system Human colon tumor cells (Colo205). As to the kind of experiment: Cell growth inhibition assay (CellTiter-Glo), Colo205. It is filed as cell-based. An outline of the steps: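 Growth is estimated from total cellular ATP measured by CellTiter-Glo luminescence after a 3-day compound exposure at 37 °C. Compounds are tested as 1:3 dilution series in 0.2% final DMSO, with inhibition expressed relative to vehicle-treated wells.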

Assay [3] deals with Human melanoma cancer cells (SK-MEL-28). The assay is described as follows: Cell growth inhibition assay (CellTiter-Glo), SK-MEL-28. It is filed as cell-based. On the technique in general: ATP-based viability assays read luminescence as a measure of living cells.
Where [4] appears, read: B-Raf Activity, Table 1a, highest pIC50 for the one or more runs.
Where [5] appears, read: B-Raf pIC50, Table 1b, later runs, average pIC50 for the one or more runs.
Where [6] appears, read: COLO 205, 72 h, Table 2a, 3 days incubation, read-out: Activity in Colo205 Tumor Cells.
Where [7] appears, read: COLO 205, Table 2b, later runs, average for the one or more runs, categorized, read-out: IC50 for Colo205.
Where [8] appears, read: SK-MEL-28, 72 h, Table 3a, 3 days incubation, read-out: Activity in SK-MEL-28 Tumor Cells.
Where [9] appears, read: SK-MEL-28, Table 3b, later runs, average for the one or more runs, categorized, read-out: IC50 for SK-MEL-28.
[10] abbreviates: Table 1b, later runs, average pIC50 for the one or more runs, read-out: B-Raf pIC50 (converted).

The structures appear in SMILES notation. Where two headings read alike, the source gives them in different places.

T1 sequence (P15056 2-766 V600E): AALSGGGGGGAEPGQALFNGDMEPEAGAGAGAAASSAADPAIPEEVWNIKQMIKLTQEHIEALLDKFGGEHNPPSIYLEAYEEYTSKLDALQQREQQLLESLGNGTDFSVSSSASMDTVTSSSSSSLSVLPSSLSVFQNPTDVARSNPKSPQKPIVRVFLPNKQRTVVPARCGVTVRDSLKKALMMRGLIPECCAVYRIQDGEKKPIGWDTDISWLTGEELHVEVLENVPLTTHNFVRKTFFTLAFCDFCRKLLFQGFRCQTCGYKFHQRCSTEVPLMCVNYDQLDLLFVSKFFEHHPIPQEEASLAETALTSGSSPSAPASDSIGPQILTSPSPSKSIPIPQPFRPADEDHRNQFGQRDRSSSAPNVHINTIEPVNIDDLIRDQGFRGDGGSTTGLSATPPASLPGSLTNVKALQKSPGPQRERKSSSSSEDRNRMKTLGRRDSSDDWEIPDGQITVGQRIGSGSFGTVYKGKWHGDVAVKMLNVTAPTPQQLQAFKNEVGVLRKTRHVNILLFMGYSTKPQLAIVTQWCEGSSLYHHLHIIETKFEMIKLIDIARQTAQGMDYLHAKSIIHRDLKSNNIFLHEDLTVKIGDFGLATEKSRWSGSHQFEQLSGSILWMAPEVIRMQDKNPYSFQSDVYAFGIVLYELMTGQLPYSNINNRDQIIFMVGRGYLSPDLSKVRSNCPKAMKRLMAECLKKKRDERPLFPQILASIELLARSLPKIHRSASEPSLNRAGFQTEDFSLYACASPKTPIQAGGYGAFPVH

`CS(=O)(=O)CCNc1nccc(-c2sc(N3CCOCC3)nc2-c2cccc(NS(=O)(=O)c3c(F)cccc3F)c2F)n1` [Example 14, 2,6-Difluoro-N-{2-fluoro-3-[5-(2-{[2-(methylsulfonyl)ethyl]amino}-4-pyrimidinyl)-2-(4-morpholinyl)-1,3-thiazol-4-yl]phenyl}benzenesulfonamide]: the IC50 in assay [1] (setting [4]) was under 100 nM; in assay [1] (setting [5]), at most 3.16 nM; in assay [2] (setting [6]) it was under 100 nM; in assay [2] (setting [7]), under 100 nM; in assay [3] (setting [8]), under 100 nM; in assay [3] (setting [9]) it was under 100 nM.
As for `CC(C)c1nc(-c2ccc(F)c(NS(=O)(=O)c3ccccc3F)c2)c(-c2ccnc(N[C@H]3CC[C@H](NS(C)(=O)=O)CC3)n2)s1` [Example 140], the IC50 in assay [1] (setting [4]) was under 100 nM; in assay [1] (setting [10]) it was 3.16 to 31.6 nM; in assay [2] (setting [6]), under 100 nM; in assay [2] (setting [7]), under 100 nM; in assay [3] (setting [8]), under 100 nM; in assay [3] (setting [9]), under 100 nM.
For the compound `O=S(=O)(Nc1cccc(-c2nc(N3CCOCC3)sc2-c2ccncn2)c1Cl)c1ccoc1` [Example 269, N-{2-chloro-3-[2-(4-morpholinyl)-5-(4-pyrimidinyl)-1,3-thiazol-4-yl]phenyl}-3-furansulfonamide], the IC50 in assay [1] (setting [5]) is at most 3.16 nM; in assay [2] (setting [7]), under 100 nM; in assay [3] (setting [9]), 100 to 1000 nM.
For the compound `Nc1nccc(-c2sc(C3CCC3)nc2-c2cccc(NS(=O)(=O)c3cc(F)ccc3F)c2F)n1` [Example 117], the IC50 in assay [1] (setting [4]) was under 100 nM; in assay [1] (setting [5]), at most 3.16 nM; in assay [2] (setting [6]) it was under 100 nM; in assay [2] (setting [7]), under 100 nM; in assay [3] (setting [8]), under 100 nM; in assay [3] (setting [9]) it was under 100 nM.
Consider `Nc1nccc(-c2sc(C3CCOC3)nc2-c2cccc(NS(=O)(=O)c3c(F)cccc3F)c2F)n1` (stereo not drawn) [Example 71, N-{3-[5-(2-Amino-4-pyrimidinyl)-2-(tetrahydro-3-furanyl)-1,3-thiazol-4-yl]-2-fluorophenyl}-2,6-difluorobenzenesulfonamide], for which the IC50 is under 100 nM in assay [1] (setting [4]); 3.16 to 31.6 nM in assay [1] (setting [10]); 100 to 1000 nM in assay [2] (setting [6]); 100 to 1000 nM in assay [2] (setting [7]); 100 to 1000 nM in assay [3] (setting [8]); 100 to 1000 nM in assay [3] (setting [9]).
On to `CC(C)(C)c1nc(-c2cccc(NS(=O)(=O)c3cc(F)ccc3F)c2F)c(-c2ccnc(NCC3CCCO3)n2)s1` (stereo not drawn) [Example 213], for which the IC50 in assay [1] (setting [4]) is under 100 nM; in assay [1] (setting [5]), at most 3.16 nM; in assay [2] (setting [6]), under 100 nM; in assay [2] (setting [7]), under 100 nM; in assay [3] (setting [8]), under 100 nM; in assay [3] (setting [9]), under 100 nM.
Take `O=S(=O)(Nc1cccc(-c2nc(C3CCOCC3)sc2-c2ccncn2)c1F)c1cc(F)ccc1F` [Example 244, 2,5-difluoro-N-{2-fluoro-3-[5-(4-pyrimidinyl)-2-(tetrahydro-2H-pyran-4-yl)-1,3-thiazol-4-yl]phenyl}benzenesulfonamide]: the results for the IC50 in assay [1] (setting [5]), in assay [2] (setting [7]) and in assay [3] (setting [9]) were at most 3.16 nM, under 100 nM and under 100 nM, respectively.
In the case of `CC(C)c1nc(-c2cccc(NS(=O)(=O)c3nccs3)c2F)c(-c2ccnc(NC3CCN(S(C)(=O)=O)CC3)n2)s1` [Example 40, N-{2-Fluoro-3-[2-(1-methylethyl)-5-(2-{[1-(methylsulfonyl)-4-piperidinyl]amino}-4-pyrimidinyl)-1,3-thiazol-4-yl]phenyl}-1,3-thiazole-2-sulfonamide], the IC50 in assay [1] (setting [4]) is under 100 nM; in assay [1] (setting [5]), at most 3.16 nM; in assay [2] (setting [6]) it was 100 to 1000 nM; in assay [2] (setting [7]), 100 to 1000 nM; in assay [3] (setting [8]), 100 to 1000 nM; in assay [3] (setting [9]), 100 to 1000 nM.
As to `Nc1nccc(-c2sc(C3CCC3)nc2-c2cccc(NS(=O)(=O)c3c(F)cccc3F)c2Cl)n1` [Example 72, N-{3-[5-(2-Amino-4-pyrimidinyl)-2-cyclobutyl-1,3-thiazol-4-yl]-2-chlorophenyl}-2,6-difluorobenzenesulfonamide], the IC50 in assay [1] (setting [4]) was under 100 nM; in assay [1] (setting [5]), at most 3.16 nM; in assay [2] (setting [6]), 100 to 1000 nM; in assay [2] (setting [7]), 100 to 1000 nM; in assay [3] (setting [8]) it was under 100 nM; in assay [3] (setting [9]) it was under 100 nM.
